Assay results published in PubChem BioAssay (NCI).
Where “and” joins values, the source holds several entries; their conditions need not be identical. Equal values may be shown once.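 Five compound concentrations were applied to cells in 96-well plates for 48 hours; endpoints were derived by simple linear interpolation of the resulting dose-response curve. GI50 = concentration required for 50% inhibition of growth. Definition used: TGI = concentration required for complete inhibition of growth.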

Assays:
Assay in all cases: DTP human tumour cell line panel, 48 h
ACHN renal = test system: ACHN renal
OVCAR-8 ovarian = test system: OVCAR-8 ovarian
KM12 colon = test system: KM12 colon
EKVX NSCLC = test system: EKVX NSCLC
IGROV1 ovarian = test system: IGROV1 ovarian
CCRF-CEM leukemia = test system: CCRF-CEM leukemia
SW-620 colon = test system: SW-620 colon
HCC-2998 colon = test system: HCC-2998 colon
MCF7 breast = test system: MCF7 breast
UO-31 renal = test system: UO-31 renal

Row | Compound | GI50 (ACHN renal) | TGI (ACHN renal) | GI50 (OVCAR-8 ovarian) | TGI (OVCAR-8 ovarian) | GI50 (KM12 colon) | TGI (KM12 colon) | GI50 (EKVX NSCLC) | TGI (EKVX NSCLC) | GI50 (IGROV1 ovarian) | TGI (IGROV1 ovarian) | GI50 (CCRF-CEM leukemia) | TGI (CCRF-CEM leukemia) | GI50 (SW-620 colon) | TGI (SW-620 colon) | GI50 (HCC-2998 colon) | TGI (HCC-2998 colon) | GI50 (MCF7 breast) | TGI (MCF7 breast) | GI50 (UO-31 renal) | TGI (UO-31 renal)
1 | CC(C)(C)NC(C1=CC(C)(C)c2ccccc2C1=O)c1ccccc1 (configuration not stated) | 1.49 µM | 2.82 µM | 1.74 µM | 4.19 µM | 1.42 µM | 2.73 µM | 1.67 µM | 4.61 µM | 1.52 µM | 4.87 µM | 1.14 µM | 4.07 µM | 1.53 µM | 2.92 µM | 1.66 µM | 3.1 µM | 1.32 µM | 2.59 µM | 1.18 µM | 2.45 µM
2 | COC(=O)NC1C(C)OC(OC2C/C=C(/C)C3C=CC4C(OC5CC(OC6CC(O)C(OC7CC(O)C(OC)C(C)O7)C(C)O6)C(O)C(C)O5)C(C)CC(C)C4C3(C)/C(O)=C3\C(=O)OC4(CC(C)C(CO)=CC4/C=C\2C)C3=O)CC1(C)[N+](=O)[O-] (configuration not stated) | 14.8 µM | 35.5 µM and 30.6 µM | – | 20.7 µM and 32.3 µM | 9.15 µM | 16.6 µM and 25.2 µM | 16.7 µM | 50 µM and 19.3 µM | 12.7 µM | 34 µM and 28.5 µM | 9.71 µM | 36.8 µM and 23.6 µM | – | 19.7 µM and 35.2 µM | – | 31.6 µM | 11.8 µM | 44 µM and 13.3 µM | 14.4 µM | 50 µM and 34.3 µM
3 | Cn1cncc1[C@@](N)(c1ccc(Cl)cc1)c1ccc2c(c1)c(-c1cccc(Cl)c1)cc(=O)n2C | 3.05 µM | 14.9 µM | 2.78 µM | 14.8 µM | 1.18 µM | 7.02 µM | 2.22 µM | 13.1 µM | 2.33 µM | 13 µM | 2.54 µM | 18.8 µM | 1.82 µM | 12.7 µM | 1.79 µM | 7.08 µM | 1.55 µM | 13.5 µM | 1.97 µM | 6.97 µM
4 | C=C1C(=O)O[C@@H]2C[C@@]3(C)CCC[C@H](C)C3=C[C@H]12 | – | 21.6 µM | – | 19.5 µM | – | 24.8 µM | – | 28.2 µM | – | 29.6 µM | – | 9.94 µM | – | 12.3 µM | – | 29.1 µM | – | 17.2 µM | – | 17.1 µM
5 | Oc1ccc2cc(Br)ccc2c1-c1c(O)ccc2cc(Br)ccc12 | 3.02 µM | 11.3 µM | 3.9 µM | 15.4 µM | 2.93 µM | 10.4 µM | 3.54 µM | 13.5 µM | 2.06 µM | 11.8 µM | 3.31 µM | 12 µM | 2.64 µM | 7.41 µM | 2.22 µM | 4.8 µM | 2.49 µM | 6.76 µM | 1.96 µM | 9.92 µM
6 | COc1ccc(-c2[nH]c3ccccc3c2C=C(C#N)C#N)cc1 | 2.26 µM | > 100 µM | 1.1 µM | > 100 µM | 0.373 µM | – | 0.648 µM | > 100 µM | – | > 100 µM | 0.352 µM | 10.3 µM | 0.435 µM | > 100 µM | 0.67 µM | 3.16 µM | 0.346 µM | > 100 µM | – | > 100 µM
7 | O=C(Nc1ccccc1O)c1cccc(NC2=C(Cl)C(=O)N(Cc3ccccc3)C2=O)c1 | 4.73 µM | 15.7 µM | 2.06 µM | 4.7 µM | 12.9 µM | 26.6 µM | 15.1 µM | 28.8 µM | 2.87 µM | 8.65 µM | < 0.0179 µM | 3.85 µM | 2.12 µM | 5.06 µM | 3.33 µM | 13.4 µM | 2.7 µM | 14.8 µM | 8.53 µM | 25.1 µM
8 | CC(=O)N1c2ccccc2C23CCN(C)CC4C(C)OCC(C4CC2=O)C13 (configuration not stated) | – | > 100 µM | – | > 100 µM | – | > 100 µM | – | > 100 µM | – | > 100 µM | – | > 100 µM | – | > 100 µM | – | > 100 µM | – | > 100 µM | – | > 100 µM
9 | CCC(C)(C)C(=O)O[C@H]1C[C@@H](C)C=C2C=C[C@H](C)[C@H](CC[C@@H]3C[C@@H](O)CC(=O)O3)[C@H]21 | 0.882 µM | 10.3 µM and 2.38 µM | – | 18.2 µM and 20.6 µM | 11.2 µM | 24.1 µM and > 30 µM | 2.78 µM | 19.3 µM and > 30 µM | 2.08 µM | 13.2 µM and 4.5 µM | – | 30.2 µM and > 30 µM | 3.58 µM | 16.6 µM and > 30 µM | 7.89 µM | 22.1 µM and > 30 µM | 12.2 µM | 26.7 µM | 2.85 µM | 14.7 µM and 10.1 µM
